Reference: US10722501B2 (BAYER AKTIENGESELLSCHAFT, priority 2016, dated 2020)

What follows are molecules tested against T1, recombinant full-length human prolyl endopeptidase (PREP) (Homo sapiens, UniProt P48147) (assay: Biochemical human prolyl endopeptidase (PREP) assay with fluorescently labelled substrate). Details: substrate Z-Gly-Pro-AMC 50 μM, 32° C., 60 min; some as mean values from multiple independent determinations.
T1 construct: To recombinant full-length human prolyl endopeptidase (PREP, R&D-Systems, 4308-SE); purchased R&D-Systems 4308-SE
T1 sequence (P48147 1-710): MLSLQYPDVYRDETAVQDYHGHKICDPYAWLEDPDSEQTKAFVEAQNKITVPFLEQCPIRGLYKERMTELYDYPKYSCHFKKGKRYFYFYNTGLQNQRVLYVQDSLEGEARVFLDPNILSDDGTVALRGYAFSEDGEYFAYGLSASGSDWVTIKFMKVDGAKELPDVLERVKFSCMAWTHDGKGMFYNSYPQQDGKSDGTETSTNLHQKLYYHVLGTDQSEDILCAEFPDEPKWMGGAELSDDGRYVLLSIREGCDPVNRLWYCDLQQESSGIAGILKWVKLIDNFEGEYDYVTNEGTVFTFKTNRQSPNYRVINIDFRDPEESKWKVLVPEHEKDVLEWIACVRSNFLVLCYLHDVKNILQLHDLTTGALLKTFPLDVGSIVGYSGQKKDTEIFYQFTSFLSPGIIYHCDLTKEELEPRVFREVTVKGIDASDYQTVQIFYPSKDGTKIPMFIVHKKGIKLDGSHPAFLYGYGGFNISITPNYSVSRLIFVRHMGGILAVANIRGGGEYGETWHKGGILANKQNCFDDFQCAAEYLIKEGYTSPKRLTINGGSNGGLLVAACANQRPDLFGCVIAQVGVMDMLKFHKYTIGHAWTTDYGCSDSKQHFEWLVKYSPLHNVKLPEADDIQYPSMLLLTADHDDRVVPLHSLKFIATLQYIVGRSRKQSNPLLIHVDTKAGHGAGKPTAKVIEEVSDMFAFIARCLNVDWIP
In short: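 0.4 nM (final, example) recombinant PREP in pH 7.5 Tris buffer with EDTA, GSH, BSA and Brij-35; compounds at 1 nM to 30 μM. Reaction started with 50 μM Z-Gly-Pro-AMC and followed by fluorescence (ex 360/em 465 nm) at 32° C for 60 min. IC50 interpolated from percent activity based on initial slopes.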

Structure (SMILES)	IC50 [µM]
Cc1ccc(Cn2nc3n(c2=O)C(C(=O)N2C[C@@H]4[C@H](C2)C4(F)F)CCC3)cc1 (mixture of isomers) [Example 117, (5RS)-5-{[(cis)-6,6-Difluoro-3-azabicyclo[3.1.0]hex-3-yl]carbonyl}-2-(4-methylbenzyl)-5,6,7,8-tetrahydro[1,2,4]triazolo[4,3-a]pyridin-3(2H)-one]	0.00315
Cc1ccc(Cn2nc3n(c2=O)C(C(=O)N2CCC(=O)C2)CCC3)cc1 (racemic) [Example 118, (5RS)-2-(4-Methylbenzyl)-5-[(3-oxopyrrolidin-1-yl)carbonyl]-5,6,7,8-tetrahydro[1,2,4]triazolo[4,3-a]pyridin-3(2H)-one]	0.0056
Cc1ccc(Cn2nc3n(c2=O)C(C(=O)N2CC(O)C2)CCC3)cc1 (racemic) [Example 120, (5RS)-5-[(3-Hydroxyazetidin-1-yl)carbonyl]-2-(4-methylbenzyl)-5,6,7,8-tetrahydro[1,2,4]triazolo[4,3-a]pyridin-3(2H)-one]	0.0096
Cc1ccc(Cn2nc3n(c2=O)C(C(=O)N2CC(OC(F)F)C2)CCC3)cc1 (racemic) [Example 123, (5RS)-5-{[3-(Difluoromethoxy)azetidin-1-yl]carbonyl}-2-(4-methylbenzyl)-5,6,7,8-tetrahydro[1,2,4]triazolo[4,3-a]pyridin-3(2H)-one]	0.012
Cc1ccc(Cn2nc3n(c2=O)C(C(=O)N2CC(C(F)(F)F)C2)CCC3)cc1 (racemic) [Example 124, (5RS)-2-(4-Methylbenzyl)-5-{[3-(trifluoromethyl)azetidin-1-yl]carbonyl}-5,6,7,8-tetrahydro[1,2,4]triazolo[4,3-a]pyridin-3(2H)-one]	0.014
COC1CN(C(=O)C2CCCc3nn(Cc4ccc(C)cc4)c(=O)n32)C1 (racemic) [Example 125, (5RS)-5-[(3-Methoxyazetidin-1-yl)carbonyl]-2-(4-methylbenzyl)-5,6,7,8-tetrahydro[1,2,4]triazolo[4,3-a]pyridin-3(2H)-one]	0.025
Cc1ccc(Cn2nc3n(c2=O)C(C(=O)N2C[C@H]4C[C@H]4C2)CCC3)cc1 (mixture of isomers) [Example 126, (5RS)-5-[(cis)-3-Azabicyclo[3.1.0]hex-3-ylcarbonyl]-2-(4-methylbenzyl)-5,6,7,8-tetrahydro[1,2,4]triazolo[4,3-a]pyridin-3(2H)-one]	0.0284
Cc1ccc(Cn2nc3n(c2=O)C(C(=O)N2CC(O)(C(F)(F)F)C2)CCC3)cc1 (racemic) [Example 131, (5RS)-{[3-Hydroxy-3-(trifluoromethyl)azetidin-1-yl]carbonyl}-2-(4-methylbenzyl)-5,6,7,8-tetrahydro[1,2,4]triazolo[4,3-a]pyridin-3(2H)-one]	0.107
Cc1ccc(Cn2nc3n(c2=O)C(C(=O)N2CC(=O)C2)CCC3)cc1 (racemic) [Example 133, (5RS)-2-(4-Methylbenzyl)-5-[(3-oxoazetidin-1-yl)carbonyl]-5,6,7,8-tetrahydro[1,2,4]triazolo[4,3-a]pyridin-3(2H)-one]	0.145
CC1Cc2nn(Cc3ccc(C(F)(F)F)nc3)c(=O)n2C(C(=O)N2CC(O)C2)C1 (racemic) [Example 134, (5RS,7RS)-5-[(3-Hydroxyazetidin-1-yl)carbonyl]-7-methyl-2-{[6-(trifluoromethyl)pyridin-3-yl]methyl}-5,6,7,8-tetrahydro[1,2,4]triazolo[4,3-a]pyridin-3(2H)-one]	0.079
CC1Cc2nn(Cc3ccc(C(F)(F)F)nc3)c(=O)n2C(C(=O)N2CC[C@H](F)C2)C1 (mixture of isomers) [Example 136, (5RS,7RS)-5-{[(3S)-3-Fluoropyrrolidin-1-yl]carbonyl}-7-methyl-2-{[6-(trifluoromethyl)pyridin-3-yl]methyl}-5,6,7,8-tetrahydro[1,2,4]triazolo[4,3-a]pyridin-3(2H)-one]	0.00117
Cc1ccc(Cn2nc3n(c2=O)[C@H](C(=O)N2CC[S+]([O-])C2)CCC3)cc1 (mixture of isomers) [Example 141, (5S)-2-(4-Methylbenzyl)-5-{[(1 RS)-1-oxido-1,3-thiazolidin-3-yl]carbonyl}-5,6,7,8-tetrahydro[1,2,4]triazolo[4,3-a]pyridin-3(2H)-one]	0.00083
Cc1ccc(Cn2nc3n(c2=O)C(C(=O)N2CCC4CC42)CCC3)cc1 (racemic) [Example 144, (5S)-5-[(cis)-2-Azabicyclo[3.1.0]hex-2-ylcarbonyl]-2-(4-methylbenzyl)-5,6,7,8-tetrahydro[1,2,4]triazolo[4,3-a]pyridin-3(2H)-one]	0.0017
Cc1ccc(Cn2nc3n(c2=O)[C@H](C(=O)N2CCC(C)(F)C2)CCC3)cc1 (mixture of isomers) [Example 151, (5S)-5-{[(3RS)-3-Fluoro-3-methylpyrrolidin-1-yl]carbonyl}-2-(4-methylbenzyl)-5,6,7,8-tetrahydro[1,2,4]triazolo[4,3-a]pyridin-3(2H)-one]	0.00026
Cc1ccc(Cn2nc3n(c2=O)[C@H](C(=O)N2CCC(O)(C(F)(F)F)C2)CCC3)cc1 (mixture of isomers) [Example 152, (5S)-5-{[(3RS)-3-Hydroxy-3-(trifluoromethyl)pyrrolidin-1-yl]carbonyl}-2-(4-methylbenzyl)-5,6,7,8-tetrahydro[1,2,4]triazolo[4,3-a]pyridin-3(2H)-one]	0.038
O=C(C1CCCc2nn(Cc3ccc(OCC(F)(F)F)nc3)c(=O)n21)N1CCCC1 (racemic) [Example 153, (5RS)-5-(Pyrrolidin-1-ylcarbonyl)-2-{[6-(2,2,2-trifluoroethoxy)pyridin-3-yl]methyl}-5,6,7,8-tetrahydro[1,2,4]triazolo[4,3-a]pyridin-3(2H)-one]	0.036
O=C(O)c1ccc(Cn2nc3n(c2=O)C(C(=O)N2CCCC2)CCC3)cc1 (racemic) [Example 154, 4-{[(5RS)-3-Oxo-5-(pyrrolidin-1-ylcarbonyl)-5,6,7,8-tetrahydro[1,2,4]triazolo[4,3-a]pyridin-2(3H)-yl]methyl}benzoic acid]	0.79
CNC(=O)c1ccc(Cn2nc3n(c2=O)C(C(=O)N2CCCC2)CCC3)cc1 (racemic) [Example 155, N-Methyl-4-{[(5RS)-3-oxo-5-(pyrrolidin-1-ylcarbonyl)-5,6,7,8-tetrahydro[1,2,4]triazolo[4,3-a]pyridin-2(3H)-yl]methyl}benzamide]	0.21
CN(C)C(=O)c1ccc(Cn2nc3n(c2=O)C(C(=O)N2CCCC2)CCC3)cc1 (racemic) [Example 156, N,N-Dimethyl-4-{[(5RS)-3-oxo-5-(pyrrolidin-1-ylcarbonyl)-5,6,7,8-tetrahydro[1,2,4]triazolo[4,3-a]pyridin-2(3H)-yl]methyl}benzamide]	0.069
Cc1ccc(Cn2nc3n(c2=O)C(C(=O)N2CC=CCC2)CCC3)cc1 (racemic) [Example 158, (5RS)-5-(3,6-Dihydropyridin-1 (2H)-ylcarbonyl)-2-(4-methylbenzyl)-5,6,7,8-tetrahydro[1,2,4]triazolo[4,3-a]pyridin-3(2H)-one]	0.0089
Cc1ccc(Cn2nc3n(c2=O)C(C(=O)N2CCOCC2)CCC3)cc1 (racemic) [Example 159, (5RS)-2-(4-Methylbenzyl)-5-(morpholin-4-ylcarbonyl)-5,6,7,8-tetrahydro[1,2,4]triazolo[4,3-a]pyridin-3(2H)-one]	0.016
Cc1ccc(Cn2nc3n(c2=O)C(C(=O)N2CCC(C)CC2)CCC3)cc1 (racemic) [Example 160, (5RS)-2-(4-Methylbenzyl)-5-[(4-methylpiperidin-1-yl)carbonyl]-5,6,7,8-tetrahydro[1,2,4]triazolo[4,3-a]pyridin-3(2H)-one]	0.032
Cc1ccc(Cn2nc3n(c2=O)C(C(=O)N2CCCCC2)CCC3)cc1 (racemic) [Example 161, (5RS)-2-(4-Methylbenzyl)-5-(piperidin-1-ylcarbonyl)-5,6,7,8-tetrahydro[1,2,4]triazolo[4,3-a]pyridin-3(2H)-one]	0.037
Cc1ccc(Cn2nc3n(c2=O)C(C(=O)N2CCCC2C)CCC3)cc1 (racemic) [Example 162, (5RS)-2-(4-Methylbenzyl)-5-[2(RS)-(2-methylpyrrolidin-1-yl)carbonyl]-5,6,7,8-tetrahydro[1,2,4]triazolo[4,3-a]pyridin-3(2H)-one]	0.13
O=C(C1CCc2nn(Cc3ccc(Cl)nc3)c(=O)n21)N1CCC(F)(F)C1 (racemic) [Example 166, (5RS)-2-[(6-Chloropyridin-3-yl)methyl]-5-[(3,3-difluoropyrrolidin-1-yl)carbonyl]-2,5,6,7-tetrahydro-3H-pyrrolo[2,1-c][1,2,4]triazol-3-one]	0.022
O=C(C1CCc2nn(Cc3ccc(C(F)(F)F)nc3)c(=O)n21)N1CCC(F)(F)C1 (racemic) [Example 167, (5RS)-5-[(3,3-Difluoropyrrolidin-1-yl)carbonyl]-2-{[6-(trifluoromethyl)pyridin-3-yl]methyl}-2,5,6,7-tetrahydro-3H-pyrrolo[2,1-c][1,2,4]triazol-3-one]	0.0565
